Laboratory results taken from publication PMC9944328 (Nature Communications, 2023).
Where two headings read alike, the source gives them in different places.

System: SSTR2 mutants
Assay: NanoBiT β-arrestin 1 recruitment assay, HEK293 (SSTR2 mutants);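 as to Emax: percent of the maximal wild-type SSTR2 response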
Assay type: cell-based, human
Conditions: for Fold of WT: β-arrestin recruitment EC50
Experimental: The NanoBiT β-arrestin 1 recruitment assays were carried out according to the method described previously. […] Human full-length SSTR wild-type and mutant vectors were C-terminally fused with a 15-amino acid flexible linker and the small fragment (SmBiT). HEK293 cells were seeded into six-well microplates at a density of 1.0 × 10^6 cells/well and cultured for 24 h at 37 °C with 5% CO2. After that, cells were co-transfected with pcDNA3.1+ vectors encoding SSTR wild-type or mutants and human β-arrestin 1. After transfecting for 24 h, the transfected cells were suspended and seeded into white 96-well plates, and then cultured at 37 °C overnight. After that the medium in each well was exchanged for 90 μl of 0.01% bovine serum albumin containing 20 μl of 50 μM coelenterazine h (Carbosynth) diluted in the HBSS assay buffer and incubated for 40 min at room temperature. Then, ligands diluted in the assay buffer was added to each well and the luminescence intensity was measured using the Synergy H1 microplate reader and detected at room temperature in a time period. All data presented are means of at least three independent experiments.

[1] = β-arrestin recruitment, SSTR2 F127(3.37)A, n=3
[2] = β-arrestin recruitment, SSTR2 F294(7.35)A, n=3, ND = not detected
[3] = β-arrestin recruitment, SSTR2 I284ECL3A, n=3
[4] = β-arrestin recruitment, SSTR2 K291(7.32)A, n=3, ND = not detected
[5] = β-arrestin recruitment, SSTR2 N276(6.55)A, n=3, ND = not detected
[6] = β-arrestin recruitment, SSTR2 W269(6.48)A, n=3
[7] = β-arrestin recruitment, SSTR2 Y50(1.39)A, n=3
[8] = β-arrestin recruitment, SSTR2 Y205(5.35)A, n=3
[9] = β-arrestin recruitment, SSTR2 Y302(7.43)A, n=3

Question: What does the source list for `N#Cc1cccc(-c2ccc3ncc(-c4cc(F)cc(F)c4)c(N4CCC(N)CC4)c3c2)c1O` [paltusotine]?
Answer: LogEC50 (β-arrestin1 recruitment) (best-fit, K291A-2): -7.045; Span (β-arrestin1 recruitment) (best-fit, K291A-2): 143.2; Top (β-arrestin1 recruitment) (best-fit, K291A-2): 139.9; Bottom (β-arrestin1 recruitment) (best-fit, K291A-3): -4.699; LogEC50 (β-arrestin1 recruitment) (best-fit, K291A-3): -6.141; Span (β-arrestin1 recruitment) (best-fit, K291A-3): 138.3; Top (β-arrestin1 recruitment) (best-fit, K291A-3): 133.6; Bottom (β-arrestin1 recruitment) (best-fit, N276A-1): -2.311; LogEC50 (β-arrestin1 recruitment) (best-fit, N276A-1): -7.135; Span (β-arrestin1 recruitment) (best-fit, N276A-1): 170; Top (β-arrestin1 recruitment) (best-fit, N276A-1): 167.7; Bottom (β-arrestin1 recruitment) (best-fit, N276A-2): -1.74; LogEC50 (β-arrestin1 recruitment) (best-fit, N276A-2): -7.135; Span (β-arrestin1 recruitment) (best-fit, N276A-2): 128; Top (β-arrestin1 recruitment) (best-fit, N276A-2): 126.3; Bottom (β-arrestin1 recruitment) (best-fit, N276A-3): -2.993; LogEC50 (β-arrestin1 recruitment) (best-fit, N276A-3): -7.215; Span (β-arrestin1 recruitment) (best-fit, N276A-3): 180.6; Top (β-arrestin1 recruitment) (best-fit, N276A-3): 177.6; Bottom (β-arrestin1 recruitment) (best-fit, Y302A-1): 0.04519; LogEC50 (β-arrestin1 recruitment) (best-fit, Y302A-1): -6.65; Span (β-arrestin1 recruitment) (best-fit, Y302A-1): 206.8; Top (β-arrestin1 recruitment) (best-fit, Y302A-1): 206.8; Bottom (β-arrestin1 recruitment) (best-fit, Y302A-2): -0.03402; LogEC50 (β-arrestin1 recruitment) (best-fit, Y302A-2): -6.645; Span (β-arrestin1 recruitment) (best-fit, Y302A-2): 207.2; Top (β-arrestin1 recruitment) (best-fit, Y302A-2): 207.2; Bottom (β-arrestin1 recruitment) (best-fit, Y302A-3): -0.02562; LogEC50 (β-arrestin1 recruitment) (best-fit, Y302A-3): -6.645; Span (β-arrestin1 recruitment) (best-fit, Y302A-3): 156; Top (β-arrestin1 recruitment) (best-fit, Y302A-3): 156; EC50 (read-out: Best-fit EC50, SSTR2 I284A, run 1): 181 nM; EC50 (read-out: Best-fit EC50, SSTR2 I284A, run 3): 180 nM; EC50 (read-out: Best-fit EC50, SSTR2 Y50A, run 1): 74.4 nM; EC50 (read-out: Best-fit EC50, SSTR2 Y50A, run 2): 65 nM; EC50 (read-out: Best-fit EC50, SSTR2 Y50A, run 3): 66.7 nM; EC50 (read-out: EC50 (best-fit value), SSTR2 W269A, run W269A-1): 300 nM; EC50 (read-out: EC50 (best-fit value), SSTR2 W269A, run W269A-2): 610 nM; EC50 (read-out: EC50 (best-fit value), SSTR2 W269A, run W269A-3): 474 nM; EC50 (read-out: EC50 (best-fit value), SSTR2 Y205A, run Y205A-2): 150 nM; EC50 (read-out: EC50 (best-fit value), SSTR2 Y205A, run Y205A-3): 213 nM; EC50 (read-out: EC50 (best-fit), F127A-1): 210 nM; EC50 (read-out: EC50 (best-fit), F127A-2): 197 nM; EC50 (read-out: EC50 (best-fit), F127A-3): 152 nM; EC50 (read-out: EC50 (β-arrestin1 recruitment), best-fit, D295A-1): 2320 nM; EC50 (read-out: EC50 (β-arrestin1 recruitment), best-fit, D295A-2): 2540 nM; EC50 (read-out: EC50 (β-arrestin1 recruitment), best-fit, D295A-3): 1970 nM; EC50 (read-out: EC50 (β-arrestin1 recruitment), best-fit, F294A-1): 1050 nM; EC50 (read-out: EC50 (β-arrestin1 recruitment), best-fit, F294A-3): 872 nM; EC50 (read-out: EC50 (β-arrestin1 recruitment), best-fit, K291A-1): 79.7 nM; EC50 (read-out: EC50 (β-arrestin1 recruitment), best-fit, K291A-2): 90.2 nM; EC50 (read-out: EC50 (β-arrestin1 recruitment), best-fit, N276A-1): 73.2 nM; EC50 (read-out: EC50 (β-arrestin1 recruitment), best-fit, N276A-3): 61 nM; EC50 (read-out: EC50 (β-arrestin1 recruitment), best-fit, Y302A-1): 224 nM; EC50 (read-out: EC50 (β-arrestin1 recruitment), best-fit, Y302A-2): 226 nM; Fold of WT (SSTR2 D295(7.36)A): 1.22; Fold of WT (SSTR2 F127(3.37)A): 0.49; Fold of WT (SSTR2 F294(7.35)A): 2.44; Fold of WT (SSTR2 I284ECL3A): 0.45; Fold of WT (SSTR2 K291(7.32)A): 0.21; Fold of WT (SSTR2 N276(6.55)A): 0.17; Fold of WT (SSTR2 W269(6.48)A): 2.65; Fold of WT (SSTR2 Y50(1.39)A): 0.17; Fold of WT (SSTR2 Y205(5.35)A): 0.42; Fold of WT (SSTR2 Y302(7.43)A): 0.56; Emax (β-arrestin recruitment, SSTR2 D295(7.36)A, detected at 10 μM, n=3): 87.12±2.30 %WT; EC50 (β-arrestin recruitment, SSTR2 D295(7.36)A, n=3): 495.7 ± 1.76 nM; EC50 [1]: 198 ± 6.66 nM; Emax [1]: 60.24±1.11 %WT; Emax (β-arrestin recruitment, SSTR2 F208(5.38)A, detected at 10 μM, n=3): 70.89±2.39 %WT; Emax (β-arrestin recruitment, SSTR2 F265(6.44)A, detected at 10 μM, n=3 octreotide, 4 paltusotine): 49.61±1.04 %WT; EC50 [2]: 990.7 ± 5.93 nM; Emax [2]: 114.80±11.09 %WT; Emax (β-arrestin recruitment, SSTR2 I130(3.40)A, detected at 10 μM, n=3): 30.45±0.36 %WT; EC50 [3]: 181 ± 3.33 nM; Emax [3]: 192.70±19.45 %WT; EC50 [4]: 86.7 ± 3.5 nM; Emax [4]: 133.50±14.76 %WT; Emax (β-arrestin recruitment, SSTR2 L99(2.60)A, detected at 10 μM, n=3): 84.26±3.71 %WT; EC50 [5]: 69.1 ± 4.07 nM; Emax [5]: 157.20±15.71 %WT; Emax (β-arrestin recruitment, SSTR2 P220(5.50)A, detected at 10 μM, n=4): 50.55±2.81 %WT; Emax (β-arrestin recruitment, SSTR2 Q102(2.63)A, detected at 10 μM, n=3): 26.07±1.00 %WT; Emax (β-arrestin recruitment, SSTR2 Q126(3.36)A, detected at 10 μM, n=3): 65.37±3.31 %WT; Emax (β-arrestin recruitment, SSTR2 T194(45.51)A, n=3): 95.9±9.02 %WT; EC50 [6]: 1077 ± 6.28 nM; Emax [6]: 50.80±24.99 %WT; EC50 [7]: 68.7 ± 2.87 nM; Emax [7]: 90.74±11.02 %WT; EC50 [8]: 172 ± 2.07 nM; Emax [8]: 152.00±23.85 %WT; EC50 [9]: 225 ± 6.67 nM; Emax [9]: 190.00±17.00 %WT
